Laboratory results as given in ChEMBL document CHEMBL1201862, “PubChem BioAssay data set” (2004).
Activity calls are given as the source filed them.

Columns and labels:
[1] = molecular target: Sphingosine 1-phosphate receptor 2 (Homo sapiens, UniProt O95136); test: Dose Response Cell Based Assay for Agonists of the S1P2 Receptor. [Related pubchem assays: 729, 736, 843 ]; format: functional
[2] = M. tuberculosis growth inhibition, HTS (AID 449762); format: functional
[3] = microbe, parasite or virus in culture; format: functional; conditions: Mycobacterium tuberculosis
[4] = molecular target: T1, Sentrin-specific protease 8 (Homo sapiens, UniProt Q96LD8); format: functional;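 further: luminescence read-out of SENP8 inhibition, dose-response confirmation following an ultra-high-throughput screen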
T1 sequence (Q96LD8 whole entry): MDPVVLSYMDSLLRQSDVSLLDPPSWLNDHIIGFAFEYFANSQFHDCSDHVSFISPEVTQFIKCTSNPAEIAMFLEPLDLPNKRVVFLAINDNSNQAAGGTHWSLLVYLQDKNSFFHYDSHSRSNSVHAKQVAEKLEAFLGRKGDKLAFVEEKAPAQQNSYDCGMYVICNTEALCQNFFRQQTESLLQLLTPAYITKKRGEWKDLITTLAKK

[5] = molecular target: T2, Sentrin-specific protease 7 (Homo sapiens, UniProt Q9BQF6); format: functional;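 further: Luminescence-based dose-response confirmation of ultra-high-throughput screening hits, measuring inhibition of SENP7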
T2 sequence (Q9BQF6 whole entry): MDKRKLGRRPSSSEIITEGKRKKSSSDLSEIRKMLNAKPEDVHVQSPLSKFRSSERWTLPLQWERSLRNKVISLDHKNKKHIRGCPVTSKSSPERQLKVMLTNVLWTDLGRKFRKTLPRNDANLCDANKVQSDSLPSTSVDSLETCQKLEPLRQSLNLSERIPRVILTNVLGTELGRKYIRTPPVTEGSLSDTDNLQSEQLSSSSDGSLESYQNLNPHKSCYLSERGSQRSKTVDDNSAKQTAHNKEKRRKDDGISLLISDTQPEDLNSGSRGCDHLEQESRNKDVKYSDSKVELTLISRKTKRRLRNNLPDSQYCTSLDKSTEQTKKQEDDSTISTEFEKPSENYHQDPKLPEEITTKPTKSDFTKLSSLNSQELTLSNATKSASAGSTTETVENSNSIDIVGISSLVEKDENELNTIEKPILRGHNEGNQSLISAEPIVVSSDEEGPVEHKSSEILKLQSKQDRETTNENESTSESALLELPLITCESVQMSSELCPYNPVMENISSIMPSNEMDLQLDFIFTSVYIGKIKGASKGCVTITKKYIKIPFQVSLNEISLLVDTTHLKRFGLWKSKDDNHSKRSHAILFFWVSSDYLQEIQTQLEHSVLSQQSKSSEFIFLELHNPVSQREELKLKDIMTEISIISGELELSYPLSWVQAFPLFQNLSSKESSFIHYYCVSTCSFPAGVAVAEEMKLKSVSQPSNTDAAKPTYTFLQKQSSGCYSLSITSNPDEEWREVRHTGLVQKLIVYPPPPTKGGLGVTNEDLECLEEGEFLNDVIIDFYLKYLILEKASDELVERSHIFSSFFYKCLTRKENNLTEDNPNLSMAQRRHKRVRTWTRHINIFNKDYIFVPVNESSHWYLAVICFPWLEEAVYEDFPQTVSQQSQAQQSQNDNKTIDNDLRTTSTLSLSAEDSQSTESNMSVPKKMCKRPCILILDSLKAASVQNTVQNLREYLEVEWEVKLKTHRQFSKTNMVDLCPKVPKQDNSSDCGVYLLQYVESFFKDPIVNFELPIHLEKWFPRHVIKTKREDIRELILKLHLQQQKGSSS

[6] = Luminescence-based cell-based high throughput dose response assay to identify activators of the DAF-12 from the parasite S. stercoralis (ssDAF-12).; format: functional
Caspase-3 = molecular target: T3, Caspase-3 (Homo sapiens, UniProt P42574); format: functional;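 further: Dose-response selectivity test against caspase-3 for candidate inhibitors of sentrin-specific proteases (SENPs)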
T3 sequence (P42574 whole entry): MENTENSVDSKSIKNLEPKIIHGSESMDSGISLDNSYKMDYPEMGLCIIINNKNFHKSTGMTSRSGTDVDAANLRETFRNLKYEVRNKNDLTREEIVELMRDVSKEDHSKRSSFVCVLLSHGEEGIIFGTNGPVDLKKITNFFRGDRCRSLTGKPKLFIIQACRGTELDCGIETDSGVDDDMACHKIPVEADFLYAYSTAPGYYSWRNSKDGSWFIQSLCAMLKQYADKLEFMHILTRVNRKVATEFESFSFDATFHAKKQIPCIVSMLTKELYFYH

[7] = molecular target: T4, Sentrin-specific protease 6 (Homo sapiens, UniProt Q9GZR1); format: functional;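 further: Luminescence-based dose-response confirmatory assay of SENP6 inhibition, following up an ultra-high-throughput screen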
T4 sequence (Q9GZR1 whole entry): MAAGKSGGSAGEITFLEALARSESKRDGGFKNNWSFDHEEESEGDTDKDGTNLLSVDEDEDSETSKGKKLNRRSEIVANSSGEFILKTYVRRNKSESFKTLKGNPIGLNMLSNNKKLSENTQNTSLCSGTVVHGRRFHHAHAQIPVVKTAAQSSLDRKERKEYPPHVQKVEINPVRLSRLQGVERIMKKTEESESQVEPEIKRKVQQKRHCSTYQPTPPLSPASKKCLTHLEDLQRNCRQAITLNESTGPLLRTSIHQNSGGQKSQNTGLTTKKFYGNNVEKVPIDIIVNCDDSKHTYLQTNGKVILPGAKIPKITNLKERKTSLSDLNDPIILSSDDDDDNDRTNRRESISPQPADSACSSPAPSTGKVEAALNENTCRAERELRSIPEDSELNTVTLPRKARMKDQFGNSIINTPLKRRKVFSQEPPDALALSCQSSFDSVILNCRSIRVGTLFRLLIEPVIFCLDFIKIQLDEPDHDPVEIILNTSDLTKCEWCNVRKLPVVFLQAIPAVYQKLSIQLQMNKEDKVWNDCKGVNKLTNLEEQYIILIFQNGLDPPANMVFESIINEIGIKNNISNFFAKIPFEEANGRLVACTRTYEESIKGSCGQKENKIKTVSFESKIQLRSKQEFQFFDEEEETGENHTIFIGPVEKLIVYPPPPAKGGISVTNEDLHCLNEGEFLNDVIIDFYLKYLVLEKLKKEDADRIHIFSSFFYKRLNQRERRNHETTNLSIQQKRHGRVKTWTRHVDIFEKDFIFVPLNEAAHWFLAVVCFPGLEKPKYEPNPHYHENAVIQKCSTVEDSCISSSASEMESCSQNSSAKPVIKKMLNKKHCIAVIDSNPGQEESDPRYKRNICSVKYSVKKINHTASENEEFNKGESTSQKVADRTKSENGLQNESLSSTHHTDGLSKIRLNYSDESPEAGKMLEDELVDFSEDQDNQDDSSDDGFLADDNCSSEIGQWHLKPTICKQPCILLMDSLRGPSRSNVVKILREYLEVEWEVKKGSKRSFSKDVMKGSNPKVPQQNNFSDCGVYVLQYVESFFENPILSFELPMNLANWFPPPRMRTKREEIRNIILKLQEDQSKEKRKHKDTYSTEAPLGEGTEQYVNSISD

[8] = molecular target: T5, Oxysterols receptor LXR-beta (Homo sapiens, UniProt P55055); test: LXR agonists, Gal4 luciferase reporter, dose response, counter-screen for ssDAF-12 agonist project, cell-based, luminescence, HEK293, S. stercoralis campaign (AID 720737); format: functional; conditions: read-out: IC50 (the source's name)
T5 sequence (P55055 whole entry): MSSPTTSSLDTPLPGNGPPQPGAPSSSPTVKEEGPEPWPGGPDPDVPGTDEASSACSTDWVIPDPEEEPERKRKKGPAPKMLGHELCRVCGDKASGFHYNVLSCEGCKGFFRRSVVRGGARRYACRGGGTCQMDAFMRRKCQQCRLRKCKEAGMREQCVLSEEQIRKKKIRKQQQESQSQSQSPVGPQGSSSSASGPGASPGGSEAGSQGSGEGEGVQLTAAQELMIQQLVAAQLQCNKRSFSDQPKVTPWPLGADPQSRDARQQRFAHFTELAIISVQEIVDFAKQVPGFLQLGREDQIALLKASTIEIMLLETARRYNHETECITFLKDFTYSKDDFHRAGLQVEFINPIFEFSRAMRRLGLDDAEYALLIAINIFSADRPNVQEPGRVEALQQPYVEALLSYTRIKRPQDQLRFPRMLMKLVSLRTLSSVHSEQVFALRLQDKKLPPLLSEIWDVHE

Prothrombin = Prothrombin (Homo sapiens, UniProt P00734); test: Thrombin 1536 HTS Dose Response Confirmation. [Related pubchem assays: 1046 (Thrombin 1536 HTS; hits were confirmed in this assay)]; format: functional
[9] = molecular target: Induced myeloid leukemia cell differentiation protein Mcl-1 (Homo sapiens, UniProt Q07820); format: functional
[10] = molecular target: T6, Heat shock factor protein 1 (Mus musculus, UniProt P38532); test: enhancement of HSF1-driven luciferase signal – cell-based, NIH3T3, luminescence, dose retest, confirmation (AID 435004); format: functional;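 further: stress induced by proteasome inhibitor MG132 added 30 min after compound; luciferase reporter driven by HSF1 response element in NIH3T3 cells; actives raise luminescence as potentiators of the MG132 stress response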
T6 sequence (P38532 whole entry): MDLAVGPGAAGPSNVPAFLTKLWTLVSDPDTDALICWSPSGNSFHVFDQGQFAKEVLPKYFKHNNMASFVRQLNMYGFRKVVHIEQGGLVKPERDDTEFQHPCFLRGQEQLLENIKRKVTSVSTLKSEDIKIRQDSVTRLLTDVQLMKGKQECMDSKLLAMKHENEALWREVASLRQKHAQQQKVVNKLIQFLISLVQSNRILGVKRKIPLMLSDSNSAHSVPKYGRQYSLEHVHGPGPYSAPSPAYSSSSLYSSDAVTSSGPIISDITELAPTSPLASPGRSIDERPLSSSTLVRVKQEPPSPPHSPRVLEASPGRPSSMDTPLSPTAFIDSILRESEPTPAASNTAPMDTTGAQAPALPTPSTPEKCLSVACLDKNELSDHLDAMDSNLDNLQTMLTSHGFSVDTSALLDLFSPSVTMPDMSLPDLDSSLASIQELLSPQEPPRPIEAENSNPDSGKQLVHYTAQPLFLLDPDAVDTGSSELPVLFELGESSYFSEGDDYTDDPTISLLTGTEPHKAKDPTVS

Ephrin type-A receptor 4 = Ephrin type-A receptor 4 (Mus musculus, UniProt Q03137); test: EphA4 ligand-binding antagonists – biochemical, colorimetric, mouse EphA4, primary screen (AID 689); format: functional
Paired box protein Pax-8 = Paired box protein Pax-8 (Homo sapiens, UniProt Q06710); test: PAX8 transcriptional activity inhibition in RMG-I – RMG-I cells, luciferase, cherry-pick, dose response (AID 687027); format: functional, cell-based;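 further: luciferase reporter driven by Pax8 target thyroperoxidase promoter measured by SteadyGlo luminescence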
[11] = P. falciparum Dd2 growth inhibitors, dose response, SYBR Green, cherry-picked samples (AID 1159567); format: functional, cell-based
[12] = growth inhibition of PfATP4-mutant resistant parasites – NITD609-resistant line, SYBR Green, dry powder, dose response (AID 1159571); format: functional, cell-based;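 further: parasites synchronized at ring stage by sorbitol before testing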
[13] = Dd2 malaria parasite growth inhibition potency – SYBR Green, dry powder samples, dose response (AID 1159566); format: functional, cell-based;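 further: potency for growth inhibition with lower SYBR green DNA signal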
[14] = growth inhibition of yeast DHODH-expressing 3D7 parasites – SYBR Green, dry powder samples, dose response (AID 1159570); format: functional, cell-based;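 further: parasite growth measured after 72 hours of compound exposure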
[15] = toxicity to human HepG2 hepatoma cells – cell-based, plate reader, dry powder samples, cytotoxicity control, dose response (AID 1159569); format: functional;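 further: inhibitor potency with signal falling toward the positive control level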
[16] = THP-1 cell cytotoxicity, dose response, cytotoxicity control for non-replicating M. tuberculosis project (AID 489025); format: functional
[17] = viability of uninfected HEp-2 cells – cell-based, HTS, cytotoxicity control for RSV inhibitor project, dose response (AID 2410); format: functional; conditions: human respiratory syncytial virus
[18] = rise of 4N DNA cells, HeLa – IC50, dose response (AID 1117351); format: functional, cell-based
HEK293 = test: EBV LMP1 TES2 canonical NF-kB signalling blockers – cell-based, HEK293, luciferase, cherry-pick, dose response (AID 588343); format: functional; conditions: Homo sapiens
[19] = rise of 2N DNA cells, HeLa – IC50, dose response (AID 1117349); format: functional, cell-based
[20] = molecular target: Voltage-gated inwardly rectifying potassium channel KCNH2 (Homo sapiens, UniProt Q12809); conditions: Potency;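 further: confirmatory quantitative high-throughput screen measuring inhibition of hERG channel activity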
Voltage-gated inwardly rectifying potassium channel KCNH2, sequence (Q12809 whole entry): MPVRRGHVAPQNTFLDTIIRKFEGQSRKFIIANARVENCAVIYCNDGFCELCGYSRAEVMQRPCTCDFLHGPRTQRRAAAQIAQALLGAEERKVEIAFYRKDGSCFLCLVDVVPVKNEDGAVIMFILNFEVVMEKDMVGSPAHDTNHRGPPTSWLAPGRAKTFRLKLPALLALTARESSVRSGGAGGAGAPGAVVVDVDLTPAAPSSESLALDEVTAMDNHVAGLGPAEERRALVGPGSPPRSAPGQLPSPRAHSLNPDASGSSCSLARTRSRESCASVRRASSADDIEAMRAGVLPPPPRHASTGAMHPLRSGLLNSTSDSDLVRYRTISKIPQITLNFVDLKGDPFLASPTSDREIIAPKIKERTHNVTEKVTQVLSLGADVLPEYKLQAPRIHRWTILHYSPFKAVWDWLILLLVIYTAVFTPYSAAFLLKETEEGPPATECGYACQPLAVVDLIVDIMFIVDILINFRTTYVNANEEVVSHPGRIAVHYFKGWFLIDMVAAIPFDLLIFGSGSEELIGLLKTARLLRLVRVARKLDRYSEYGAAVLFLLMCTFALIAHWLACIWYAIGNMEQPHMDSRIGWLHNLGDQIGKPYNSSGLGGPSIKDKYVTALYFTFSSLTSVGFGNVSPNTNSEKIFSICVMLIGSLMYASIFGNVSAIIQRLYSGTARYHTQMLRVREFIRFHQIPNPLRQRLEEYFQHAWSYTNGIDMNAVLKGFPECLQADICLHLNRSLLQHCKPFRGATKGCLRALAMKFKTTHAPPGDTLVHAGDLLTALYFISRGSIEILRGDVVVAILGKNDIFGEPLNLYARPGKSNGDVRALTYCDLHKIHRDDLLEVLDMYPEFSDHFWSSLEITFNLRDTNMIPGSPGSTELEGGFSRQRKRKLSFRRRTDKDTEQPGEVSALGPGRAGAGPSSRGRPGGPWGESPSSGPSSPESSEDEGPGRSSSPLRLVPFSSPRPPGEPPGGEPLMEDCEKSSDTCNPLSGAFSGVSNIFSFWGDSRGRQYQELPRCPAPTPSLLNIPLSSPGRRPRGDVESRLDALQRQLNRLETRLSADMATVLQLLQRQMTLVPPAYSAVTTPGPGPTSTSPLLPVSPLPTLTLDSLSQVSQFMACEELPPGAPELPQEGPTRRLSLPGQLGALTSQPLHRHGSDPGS

Ephrin type-A receptor 4, sequence (Q03137 whole entry): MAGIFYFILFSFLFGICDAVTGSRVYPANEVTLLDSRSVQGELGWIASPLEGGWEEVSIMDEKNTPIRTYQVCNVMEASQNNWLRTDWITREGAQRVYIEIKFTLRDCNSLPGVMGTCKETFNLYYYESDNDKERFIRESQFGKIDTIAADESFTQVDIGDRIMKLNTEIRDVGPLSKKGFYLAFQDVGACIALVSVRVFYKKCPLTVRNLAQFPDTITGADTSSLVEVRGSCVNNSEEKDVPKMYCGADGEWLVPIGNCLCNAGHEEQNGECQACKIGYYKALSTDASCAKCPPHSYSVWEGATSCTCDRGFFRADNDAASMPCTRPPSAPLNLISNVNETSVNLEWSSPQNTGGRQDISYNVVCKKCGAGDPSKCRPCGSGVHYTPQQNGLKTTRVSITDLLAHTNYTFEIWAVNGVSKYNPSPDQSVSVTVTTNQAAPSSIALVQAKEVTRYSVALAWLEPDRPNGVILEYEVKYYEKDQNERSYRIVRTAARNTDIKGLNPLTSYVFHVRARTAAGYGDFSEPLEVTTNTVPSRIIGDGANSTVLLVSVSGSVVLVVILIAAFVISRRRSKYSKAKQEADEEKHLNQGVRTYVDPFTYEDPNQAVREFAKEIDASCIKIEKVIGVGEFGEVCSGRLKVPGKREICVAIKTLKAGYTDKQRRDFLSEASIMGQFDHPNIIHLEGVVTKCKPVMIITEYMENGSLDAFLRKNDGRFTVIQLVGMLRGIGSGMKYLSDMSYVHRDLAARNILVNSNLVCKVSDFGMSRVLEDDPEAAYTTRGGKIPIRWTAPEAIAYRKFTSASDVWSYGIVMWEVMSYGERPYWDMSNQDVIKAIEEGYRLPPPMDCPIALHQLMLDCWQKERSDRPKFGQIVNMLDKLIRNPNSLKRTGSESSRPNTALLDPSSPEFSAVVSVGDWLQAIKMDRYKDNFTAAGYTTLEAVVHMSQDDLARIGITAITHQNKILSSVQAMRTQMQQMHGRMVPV
Sphingosine 1-phosphate receptor 2, sequence (O95136 whole entry): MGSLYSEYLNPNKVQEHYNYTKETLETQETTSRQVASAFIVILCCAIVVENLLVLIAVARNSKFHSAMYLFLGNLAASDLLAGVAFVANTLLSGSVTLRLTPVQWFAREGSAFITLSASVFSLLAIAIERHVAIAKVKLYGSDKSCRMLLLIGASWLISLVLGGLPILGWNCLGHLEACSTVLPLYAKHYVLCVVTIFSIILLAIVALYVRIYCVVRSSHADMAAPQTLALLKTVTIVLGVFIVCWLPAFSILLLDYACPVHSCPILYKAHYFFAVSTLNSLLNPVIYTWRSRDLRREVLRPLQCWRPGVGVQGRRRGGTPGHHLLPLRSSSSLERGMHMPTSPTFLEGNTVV
Paired box protein Pax-8, sequence (Q06710 whole entry): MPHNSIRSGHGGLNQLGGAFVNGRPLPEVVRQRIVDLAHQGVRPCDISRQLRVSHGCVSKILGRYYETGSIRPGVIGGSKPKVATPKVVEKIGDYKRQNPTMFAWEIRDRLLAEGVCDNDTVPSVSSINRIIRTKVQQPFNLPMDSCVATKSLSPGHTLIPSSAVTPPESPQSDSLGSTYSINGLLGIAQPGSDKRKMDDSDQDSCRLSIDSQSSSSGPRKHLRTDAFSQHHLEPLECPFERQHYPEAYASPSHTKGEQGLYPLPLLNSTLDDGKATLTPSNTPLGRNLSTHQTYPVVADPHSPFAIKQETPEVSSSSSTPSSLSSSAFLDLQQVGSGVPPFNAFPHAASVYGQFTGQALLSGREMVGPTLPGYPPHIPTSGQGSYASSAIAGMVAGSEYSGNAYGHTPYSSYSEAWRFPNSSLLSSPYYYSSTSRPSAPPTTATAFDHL
Induced myeloid leukemia cell differentiation protein Mcl-1, sequence (Q07820 whole entry): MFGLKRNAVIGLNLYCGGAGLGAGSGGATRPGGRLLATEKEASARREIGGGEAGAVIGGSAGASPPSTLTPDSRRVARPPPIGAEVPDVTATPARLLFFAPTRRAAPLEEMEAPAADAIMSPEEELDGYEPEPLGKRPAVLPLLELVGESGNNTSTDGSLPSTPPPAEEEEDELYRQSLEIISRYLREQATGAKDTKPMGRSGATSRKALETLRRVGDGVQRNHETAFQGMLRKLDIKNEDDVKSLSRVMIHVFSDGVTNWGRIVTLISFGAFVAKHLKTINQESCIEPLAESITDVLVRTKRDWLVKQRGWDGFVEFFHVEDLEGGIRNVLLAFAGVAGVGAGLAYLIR

CCOC(=O)c1cc2ccc(OC)c(OC)c2c(=O)s1
EC50 [1]: > 50 µM (not active)

COc1ccc(-c2c(-c3cc(OC)cc(OC)c3)n(C)c3ccc(-c4cc[nH]n4)cc23)cc1
IC50 [2]: > 100 µM (active) | CC50 [3]: > 40 µM (active)

Cc1ccc(NC(=O)c2oc3ccccc3c2C)nc1
IC50 [4]: > 100 µM (inactive) | IC50 [5]: 7.35 µM (active) | IC50 [6]: > 67.5 µM (inactive) | IC50 (Caspase-3): 25.8 µM (active) | IC50 [7]: 85.3 µM (active) | EC50 [8]: > 67.5 µM (inactive)

Cn1c(SCC(=O)c2ccc3c(c2)NC(=O)CO3)nc2ccccc21
IC50 (Prothrombin): > 50 µM (not active)

CCN(CCO)c1nc(SC)nc2c1sc1nc(-c3ccco3)c3c(c12)CCC3
IC50 [9]: 1.85 µM (active) | EC50 [10]: 66.5 µM (active) | IC50 (Ephrin type-A receptor 4): 24.1 µM (active)

C[C@H](CO)N1C[C@H](C)[C@H](CN(C)S(=O)(=O)c2cccc(F)c2)OCc2ccccc2-c2c(n(C)c3ccccc23)C1=O
AC50 (Paired box protein Pax-8): 11.3 µM (active) | AC50 [11]: 2.07 µM (active) | AC50 [12]: 0.62 µM (active) | AC50 [13]: 0.722 µM (active) | AC50 [14]: 1.6 µM (active) | AC50 [15]: 31.5 µM (active)

CCOC(=O)c1ccc(/N=C2\SC(C(=O)Nc3ccc(C(=O)O)cc3)CC(=O)N2Cc2cccs2)cc1 (configuration not stated)
IC50 [2]: > 100 µM (active) | CC50 [16]: > 40 µM (active) | CC50 [17]: 13 µM (active)

Cc1ccc(OC(=O)N(C)C[C@H]2OCc3ccccc3-c3c(n(C)c4ccccc34)C(=O)N([C@H](C)CO)C[C@@H]2C)cc1
AC50 [11]: 2.53 µM (active) | AC50 [12]: 1.96 µM (active) | AC50 [13]: 1.71 µM (active) | AC50 [14]: 1.72 µM (active) | AC50 [15]: 22.9 µM (active)

COc1ccccc1C(=O)n1nc(-c2ccco2)nc1SC
IC50 (Prothrombin): 0.001 µM (active)

N[C@@H](Cc1ccc(N(CCCl)CCCl)cc1)C(=O)O
IC50 [18]: 5.36 µM (inactive) | AC50 (HEK293): 10.3 µM (active) | IC50 [19]: 2.26 µM (active) | AC50 [20]: 15.8 µM (inconclusive)
